From patent US10039753B2, “Imidazo[4,5-c]quinoline and imidazo[4,5-c][1,5]naphthyridine derivatives as LRRK2 inhibitors” (Pfizer Inc., priority 2015, dated 2018) come the findings set out here.

Where a name gives a salt, the structure may show the parent alone.

For test [1], the target named is T1, GST-tagged truncated LRRK2 (Homo sapiens, UniProt Q5S007).
T1 construct: GST-tagged truncated LRRK2 from Invitrogen (Cat # PV4874); GST; purchased Invitrogen PV4874
Briefly: LRRK2 Assay, Format 1 (Lantha Screen), WT. In kind it is biochemical. An outline of the steps: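 Kinase activity measured by TR-FRET: GST-tagged truncated LRRK2 (4 μg/mL working solution) reacted with fluorescein-labeled LRRKtide (ERM-based peptide) across a compound dose response for 2 h at room temperature. Reaction stopped with EDTA-containing detection buffer (20 mM Tris pH 7.6) holding 2 nM terbium anti-phospho-ERM antibody.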

Another test deals with mutant G2019S LRRK2 (Homo sapiens, UniProt Q5S007, G2019S). As to the kind of experiment: LRRK2 Assay, Format 1 (Lantha Screen), G2019S mutant.
The mark [2] stands for this setting: Format 1, wild-type LRRK2, geometric mean of 2-4 determinations unless footnoted (a: ≥5 determinations; b: single determination; c: determined on trifluoroacetate salt).

T1 sequence (Q5S007 970-2527 limits assumed): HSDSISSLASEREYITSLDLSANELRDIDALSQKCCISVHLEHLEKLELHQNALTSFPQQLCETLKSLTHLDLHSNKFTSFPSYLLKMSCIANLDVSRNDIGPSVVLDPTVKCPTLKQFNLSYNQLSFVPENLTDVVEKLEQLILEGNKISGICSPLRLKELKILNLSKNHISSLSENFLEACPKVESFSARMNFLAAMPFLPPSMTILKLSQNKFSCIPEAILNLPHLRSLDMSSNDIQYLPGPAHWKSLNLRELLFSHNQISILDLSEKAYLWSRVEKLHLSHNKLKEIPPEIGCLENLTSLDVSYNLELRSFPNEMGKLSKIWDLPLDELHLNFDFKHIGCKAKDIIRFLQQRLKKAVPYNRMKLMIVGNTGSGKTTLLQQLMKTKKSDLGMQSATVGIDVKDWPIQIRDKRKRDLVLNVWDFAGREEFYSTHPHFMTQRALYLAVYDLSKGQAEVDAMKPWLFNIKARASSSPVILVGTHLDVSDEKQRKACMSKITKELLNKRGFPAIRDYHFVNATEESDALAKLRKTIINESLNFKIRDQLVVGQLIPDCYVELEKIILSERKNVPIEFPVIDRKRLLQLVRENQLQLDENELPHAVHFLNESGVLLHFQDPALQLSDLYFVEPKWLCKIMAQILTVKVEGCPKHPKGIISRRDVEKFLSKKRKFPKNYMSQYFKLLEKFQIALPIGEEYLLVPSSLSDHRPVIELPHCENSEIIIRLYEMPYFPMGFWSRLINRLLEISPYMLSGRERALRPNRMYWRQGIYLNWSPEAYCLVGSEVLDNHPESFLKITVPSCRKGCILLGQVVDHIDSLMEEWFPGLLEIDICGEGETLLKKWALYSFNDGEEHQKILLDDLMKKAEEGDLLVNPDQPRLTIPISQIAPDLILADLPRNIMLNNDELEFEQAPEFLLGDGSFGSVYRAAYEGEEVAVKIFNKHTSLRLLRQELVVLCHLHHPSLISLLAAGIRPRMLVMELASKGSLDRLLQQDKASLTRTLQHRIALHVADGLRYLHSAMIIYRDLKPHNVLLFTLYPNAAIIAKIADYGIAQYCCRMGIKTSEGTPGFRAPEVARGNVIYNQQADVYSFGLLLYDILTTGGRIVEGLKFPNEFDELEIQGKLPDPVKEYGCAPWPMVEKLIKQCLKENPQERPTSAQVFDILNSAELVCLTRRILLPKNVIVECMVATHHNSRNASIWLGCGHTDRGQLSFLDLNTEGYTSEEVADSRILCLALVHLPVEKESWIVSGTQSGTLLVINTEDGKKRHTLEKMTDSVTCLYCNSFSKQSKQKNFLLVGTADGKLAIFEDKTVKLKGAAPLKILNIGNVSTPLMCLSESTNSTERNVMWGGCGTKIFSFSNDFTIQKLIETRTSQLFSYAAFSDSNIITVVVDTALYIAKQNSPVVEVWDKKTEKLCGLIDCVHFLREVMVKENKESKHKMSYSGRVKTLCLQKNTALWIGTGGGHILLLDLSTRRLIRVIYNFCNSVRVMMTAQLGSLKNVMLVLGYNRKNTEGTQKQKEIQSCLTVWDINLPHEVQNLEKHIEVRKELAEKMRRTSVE
Sequence of mutant G2019S LRRK2 (Q5S007 970-2527 G2019S limits assumed): as the sequence (Q5S007 970-2527 limits assumed) above, with G1050S counted along it

Take `CC1(C)CC(n2c(Cn3cc(C(F)(F)F)cn3)nc3cnc4ccc(F)cc4c32)CCO1` (centres unmarked) [Example 81, 1-(2,2-dimethyltetrahydro-2H-pyran-4-yl)-8-fluoro-2-{[4-(trifluoromethyl)-1H-pyrazol-1-yl]methyl}-1H-imidazo[4,5-c]quinoline, trifluoroacetate salt]: the IC50 (usually the concentration at which inhibition is half-maximal) in test [1] (setting [2]) worked out at 159 nM; on mutant G2019S LRRK2 it was 121 nM.
The corresponding values for `Fc1ccc2ncc3nc(Cc4cn5ncsc5n4)n(C4CCOCC4)c3c2c1` [Example 82, 8-fluoro-2-(imidazo[2,1-b][1,3,4]thiadiazol-6-ylmethyl)-1-(tetrahydro-2H-pyran-4-yl)-1H-imidazo[4,5-c]quinoline, trifluoroacetate salt] are 17.6 nM and 16.2 nM.
For `Cc1nn2cc(Cc3nc4cnc5ccc(F)cc5c4n3C3CCOC(C)(C)C3)nc2s1` (centres unmarked) [Example 83, 1-(2,2-dimethyltetrahydro-2H-pyran-4-yl)-8-fluoro-2-[(2-methylimidazo[2,1-b][1,3,4]thiadiazol-6-yl)methyl]-1H-imidazo[4,5-c]quinoline, trifluoroacetate salt], the IC50 in test [1] (setting [2]) was 25.4 nM; against mutant G2019S LRRK2, 21.2 nM.
In the case of `CC1(C)CC(n2c(Cc3ccon3)nc3cnc4ccc(F)cc4c32)CCO1` (centres unmarked) [Example 84, 1-(2,2-dimethyltetrahydro-2H-pyran-4-yl)-8-fluoro-2-(1,2-oxazol-3-ylmethyl)-1H-imidazo[4,5-c]quinoline, trifluoroacetate salt], the IC50 in test [1] (setting [2]) turned out to be 31.4 nM; on mutant G2019S LRRK2 it was 24.9 nM.
On the same counts, the results for `C[C@@H]1C[C@H](n2c(Cc3cscn3)nc3c(N)nc4ccc(Cl)cc4c32)CCO1` [Example 85, 8-chloro-1-[(2R,4R)-2-methyltetrahydro-2H-pyran-4-yl]-2-(1,3-thiazol-4-ylmethyl)-1H-imidazo[4,5-c]quinolin-4-amine, trifluoroacetate salt] are 12.3 nM and 10 nM.
On to `COc1ccc2ncc3nc(Cc4noc(C)n4)n([C@@H]4CCO[C@H](C)C4)c3c2c1` [Example 87, 8-methoxy-2-[(5-methyl-1,2,4-oxadiazol-3-yl)methyl]-1-[(2R,4R)-2-methyltetrahydro-2H-pyran-4-yl]-1H-imidazo[4,5-c]quinoline], for which the IC50 came to 111 nM in test [1] (setting [2]) and 38.8 nM on mutant G2019S LRRK2.
The corresponding values for `COc1ccc2ncc3nc(Cn4cc(C)nn4)n([C@@H]4CCO[C@H](C)C4)c3c2c1` [Example 88, 8-methoxy-1-[(2R,4R)-2-methyltetrahydro-2H-pyran-4-yl]-2-[(4-methyl-1H-1,2,3-triazol-1-yl)methyl]-1H-imidazo[4,5-c]quinoline] are 18 nM and 7.5 nM.
As for `COc1ccc2ncc3nc(Cc4cn5ncsc5n4)n([C@@H]4CCO[C@H](C)C4)c3c2c1` [Example 90, 2-(imidazo[2,1-b][1,3,4]thiadiazol-6-ylmethyl)-8-methoxy-1-[(2R,4R)-2-methyltetrahydro-2H-pyran-4-yl]-1H-imidazo[4,5-c]quinoline], the IC50 in test [1] (setting [2]) is 14.8 nM; against mutant G2019S LRRK2, 6.4 nM.
With `Cc1cnc(Cc2nc3cnc4ccc(Cl)cc4c3n2[C@@H]2CCO[C@H](C)C2)o1` [Example 92, 8-chloro-2-[(5-methyl-1,3-oxazol-2-yl)methyl]-1-[(2R,4R)-2-methyltetrahydro-2H-pyran-4-yl]-1H-imidazo[4,5-c]quinoline], the IC50 in test [1] (setting [2]) is 16.2 nM; at mutant G2019S LRRK2, 11 nM.
As for `C[C@H]1C[C@@H](n2c(Cc3ccon3)nc3cnc4ccc(C#N)cc4c32)CCO1` [enantiomer of Example 22, 1-[(2 S,4S)-2-methyltetrahydro-2H-pyran-4-yl]-2-(1,2-oxazol-3-ylmethyl)-1H-imidazo[4,5-c]quinoline-8-carbonitrile], the IC50 in test [1] (100 nM LRRKtide, 50 μM ATP, 1.7 μg/mL LRRK2 enzyme, two hours at room temperature) is 534 nM; against mutant G2019S LRRK2, 258 nM.
